From publication PMC8184751, “Proline/arginine dipeptide repeat polymers derail protein folding in amyotrophic lateral sclerosis” (Nature Communications, 2021)
“Also recorded” adds a separate entry of the source.

Legend:
PPIA [1] = molecular target: T1, PPIA (Homo sapiens, UniProt P62937); assay: NMR titration of 15N-labeled PPIA with dipeptide repeat polymers (1H-15N HSQC); format: binding; conditions: for I/I0 of the HSQC cross-peak of PPIA residue 55 (SI Fig 2a): eightfold excess of peptide (320 µM) over 40 µM 15N-PPIA; for I/I0 of the HSQC cross-peak of PPIA residue 55 (SI Fig 2a) / Arg55 I/I0 (titration, SI Fig 2b) / Arg55 csp: pH 7.4, 298 K; for binding to PPIA judged from NMR signals: eightfold excess of peptide over PPIA, 1H-15N HSQC; for Arg55 I/I0 (titration, SI Fig 2b) / Arg55 csp: 40 µM 15N-PPIA
T1 construct: His-tag (cleaved yes); made in house; host or cells: Escherichia coli BL21(DE3)
Protocol: Titration of ^15N-labeled PPIA with dipeptide repeat polymers (PR20, GR20, GP20, AP20, PR10, PR5, and PR2) were carried out in 25 mM HEPES buffer with 100 mM NaCl, 2 mM DTT, 0.01% NaN3, and 10% D20 at pH 7.4. For 40 µM protein, the ligand concentrations were increased from 0 to 320 µM in five steps. For the PPIA/GP20 and PPIA/AP20 titrations, the concentration of the repeat polymer was further increased up to 3200 µM. Two-dimensional ^15N-^1H HSQC spectra[41] were acquired at 298 K for each PPIA/repeat polymer ratio.
Kd calculations for the interactions of PPIA with PR repeats (PR5, PR10, and PR20) were made from the dipeptide repeat polymer-induced variations in PPIA cross-peak intensities, using the equation for slow exchange regime interactions:1 1−I/I0=Imax(Kd+P+x)−Kd+P+x^2−4×P×x/2P where I is the intensity of PPIA peaks in the presence of increasing ligand concentrations, I0 is the intensity of free protein, P is the total concentration of protein, x is the concentration of ligand, and Kd is the dissociation constant.
The error in 1−(I/I0) is taken to be the error in the experimental quantity of I/I0 and has been calculated from the noise in HSQC spectra according to2 σI/I0=I/I0σI0/I0^2+σ(I)/I^2 where σ(I/Io) is the error in I/I0, σ(Io) and σ(I) are the noise (RMS value of background noise from various regions) in the HSQC spectrum of PPIA alone and that of PPIA in the presence of ligand, respectively.
In case of the PPIA/GP20- and PPIA/AP20 interactions, the Kd value was calculated from the equation for fast exchange interactions using chemical shift perturbations (CSP) according to3 CSP=CSPmax(Kd+P+x)−(Kd+P+x)^2−4×P×x/2P where4 CSP=(δH)^2+δN/6.5^2
Imax and CSPmax were treated as independent free fit parameters for the residues. The error value in the Kd is the standard error of fitting.

RNaseT1 = molecular target: T2, RNaseT1 (Aspergillus oryzae, UniProt P00651); assay: Refolding of RNaseT1 without PPIA (self-folding control with PR20); format: biochemical; conditions: for exponential folding rate constant k of RNaseT1, no PPIA: Rnase T1:PR20=1:175, no CypA, same conditions
T2 construct: purchased Thermo Fischer
T2 sequence (P00651 27-130): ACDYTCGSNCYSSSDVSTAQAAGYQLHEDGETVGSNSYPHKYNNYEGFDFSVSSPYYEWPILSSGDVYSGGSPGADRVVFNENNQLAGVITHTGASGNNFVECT
Protocol: (§1) RNaseT1 (purchased from Thermo Fischer) was unfolded by incubating in 6.9 M urea at 10 °C for 2 h in 100 mM Tris-HCl buffer at pH 8. Refolding of RNaseT1 was initiated by diluting it 35 times with same buffer such that the final concentration of RNaseT1 was 2.27 µM and urea 0.197 M. Tryptophan fluorescence emission was measured at 320 nm (excitation wavelength = 280 nm) during refolding for 1 h on a Cary Eclipse Fluorescence Spectrophotometer at 10 °C. In experiments with PR20, PPIA, or both, they were added to the dilution buffer and incubated at 10 °C for 2 h prior to mixing. Data were normalized and averaged for graphical representation. The exponential constants, k, for the increasing fluorescence intensities were obtained from fitting a mono-exponential function to the experimental data in Graph Pad Prism.

PPIA [2] = molecular target: T1, PPIA; assay: PPIA-catalysed refolding of urea-unfolded RNaseT1 (tryptophan fluorescence); format: biochemical
Protocol: as §1

PPIA [3] = conditions: read-out: binding affinity to the enzyme; cited from earlier work
prolyl isomerase PPIA [4] = molecular target: T3, prolyl isomerase PPIA (human, UniProt P62937 2-164); assay: NMR titration; 40 µM 15N-labeled PPIA titrated with GP20 or AP20 up to 3200 µM; 1H-15N HSQC at 298 K; 25 mM HEPES, 100 mM NaCl, 2 mM DTT, pH 7.4; Kd from chemical shift perturbations (equation for fast exchange); conditions: both partners purified
T3 construct: human PPIA (peptidyl-prolyl cis-trans isomerase A, cyclophilin A); gene cloned into a modified pET28a vector; 15N-labeled for the NMR titrations, unlabeled for ITC, crystallography and folding assays; source: E. coli BL21(DE3), purified (Ni-NTA, TEV cleavage, Superdex 75); 15N-labeled in M9 minimal media for NMR

prolyl isomerase PPIA [5] = molecular target: T3, prolyl isomerase PPIA; assay: NMR titration; 40 µM 15N-labeled PPIA titrated with repeat polymer from 0 to 320 µM in five steps; 1H-15N HSQC at 298 K; 25 mM HEPES, 100 mM NaCl, 2 mM DTT, pH 7.4; Kd from the attenuation of the cross-peak of Arg55 (equation for slow exchange); conditions: both partners purified
prolyl isomerase PPIA [6] = molecular target: T3, prolyl isomerase PPIA; assay: ITC; 44 µM PPIA in the cell titrated with 650 µM PR20 in the syringe; 10 °C; 25 mM HEPES, 100 mM NaCl, 1 mM TCEP, pH 7.4; number of binding sites fixed to one; conditions: both partners purified

T1 sequence (P62937 whole entry): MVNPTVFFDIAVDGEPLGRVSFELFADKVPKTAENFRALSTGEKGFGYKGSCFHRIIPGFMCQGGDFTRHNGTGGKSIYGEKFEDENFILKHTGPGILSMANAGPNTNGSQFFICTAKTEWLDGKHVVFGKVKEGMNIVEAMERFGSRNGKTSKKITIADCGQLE
T3 sequence (P62937 2-164): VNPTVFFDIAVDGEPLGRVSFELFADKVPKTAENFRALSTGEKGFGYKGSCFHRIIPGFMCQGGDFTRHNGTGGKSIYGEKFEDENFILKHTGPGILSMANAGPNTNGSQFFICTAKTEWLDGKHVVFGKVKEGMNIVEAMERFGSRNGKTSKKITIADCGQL

Molecule: PR2: two PR dipeptides, the four-residue peptide, acetylated and amidated termini (Ac-PRPR-NH2)
- I/I0 of the HSQC cross-peak of PPIA residue 55 (SI Fig 2a) (PPIA [1]): 0.9376
- binding to PPIA judged from NMR signals (PPIA [1]): does not efficiently bind; also recorded: abrogated the binding to PPIA

Molecule: GR20: 20-dipeptide glycine/arginine repeat polymer, acetylated and amidated termini
- binding to PPIA judged from NMR signals (PPIA [1]): does not bind to PPIA
- Arg55 I/I0 (titration, SI Fig 2b) (PPIA [1]; ligand conc 9.6 uM): 0.0912
- Arg55 I/I0 (titration, SI Fig 2b) (PPIA [1]; ligand conc 32 uM): 0.0182
- Arg55 I/I0 (titration, SI Fig 2b) (PPIA [1]; ligand conc 96 uM): -0.00762
- Arg55 I/I0 (titration, SI Fig 2b) (PPIA [1]; ligand conc 160 uM): 0.124
- Arg55 I/I0 (titration, SI Fig 2b) (PPIA [1]; ligand conc 320 uM): -0.0665

Molecule: Ac-PRPRPRPRPR-NH2 [PR5]
- Kd (PPIA [1]): 48.5 µM
- I/I0 of the HSQC cross-peak of PPIA residue 55 (SI Fig 2a) (PPIA [1]): 0.1037

Molecule: Ac-GPGPGPGPGPGPGPGPGPGPGPGPGPGPGPGPGPGPGPGP-NH2 [GP20]
- Arg55 csp (PPIA [1]; peptide conc. 32 uM): 0.002383
- Arg55 csp (PPIA [1]; peptide conc. 96 uM): 0.006761
- Arg55 csp (PPIA [1]; peptide conc. 160 uM): 0.01147
- Arg55 csp (PPIA [1]; peptide conc. 320 uM): 0.01968
- Arg55 csp (PPIA [1]; peptide conc. 640 uM): 0.034
- Arg55 csp (PPIA [1]; peptide conc. 1280 uM): 0.04768
- Arg55 csp (PPIA [1]; peptide conc. 2560 uM): 0.06404
- Arg55 csp (PPIA [1]; peptide conc. 3200 uM): 0.07024

Molecule: Ac-PRPRPRPRPRPRPRPRPRPR-NH2 [PR10]
- Kd (PPIA [1]): 27.1 µM
- I/I0 of the HSQC cross-peak of PPIA residue 55 (SI Fig 2a) (PPIA [1]): 0.1506

Molecule: Ac-PRPRPRPRPRPRPRPRPRPRPRPRPRPRPRPRPRPRPRPR-NH2 [PR20]
- I/I0 of the HSQC cross-peak of PPIA residue 55 (SI Fig 2a) (PPIA [1]): -0.02438
- Arg55 I/I0 (titration, SI Fig 2b) (PPIA [1]; ligand conc 9.6 uM): 0.211
- Arg55 I/I0 (titration, SI Fig 2b) (PPIA [1]; ligand conc 32 uM): 0.472
- Arg55 I/I0 (titration, SI Fig 2b) (PPIA [1]; ligand conc 96 uM): 0.746
- Arg55 I/I0 (titration, SI Fig 2b) (PPIA [1]; ligand conc 160 uM): 0.931
- Arg55 I/I0 (titration, SI Fig 2b) (PPIA [1]; ligand conc 320 uM): 1.02
- exponential folding rate constant k of RNaseT1, no PPIA (RNaseT1; independent experiment 2 of 3): 0.1365
- exponential folding rate constant k of RNaseT1, no PPIA (RNaseT1; independent experiment 3 of 3): 0.1365
- refolding kinetics of RNaseT1 in the presence of PR20, no PPIA (RNaseT1; large excess of PR20, 10 °C, pH 8): unchanged
- exponential folding rate constant k of RNaseT1 (PPIA [2]; Rnase T1:CypA:PR20=1:0.033:7, 2.27 µM RNaseT1, 100 mM Tris-HCl pH 8, 10 °C, fluorescence 320 nm, mono-exponential fit, independent experiment 1 of 3): 0.2834
- exponential folding rate constant k of RNaseT1 (PPIA [2]; Rnase T1:CypA:PR20=1:0.033:7, same conditions, independent experiment 2 of 3): 0.2936
- exponential folding rate constant k of RNaseT1 (PPIA [2]; Rnase T1:CypA:PR20=1:0.033:7, same conditions, independent experiment 3 of 3): 0.3078
- exponential folding rate constant k of RNaseT1 (PPIA [2]; Rnase T1:CypA:PR20=1:0.033:20, 2.27 µM RNaseT1, pH 8, 10 °C, mono-exponential fit, independent experiment 1 of 3): 0.2235
- exponential folding rate constant k of RNaseT1 (PPIA [2]; Rnase T1:CypA:PR20=1:0.033:20, same conditions, independent experiment 2 of 3): 0.3061
- exponential folding rate constant k of RNaseT1 (PPIA [2]; Rnase T1:CypA:PR20=1:0.033:20, same conditions, independent experiment 3 of 3): 0.2847
- exponential folding rate constant k of RNaseT1 (PPIA [2]; Rnase T1:CypA:PR20=1:0.033:46, 2.27 µM RNaseT1, pH 8, 10 °C, mono-exponential fit, independent experiment 1 of 3): 0.2129
- exponential folding rate constant k of RNaseT1 (PPIA [2]; Rnase T1:CypA:PR20=1:0.033:46, same conditions, independent experiment 2 of 3): 0.2303
- exponential folding rate constant k of RNaseT1 (PPIA [2]; Rnase T1:CypA:PR20=1:0.033:46, same conditions, independent experiment 3 of 3): 0.2811
- exponential folding rate constant k of RNaseT1 (PPIA [2]; Rnase T1:CypA:PR20=1:0.033:175, 2.27 µM RNaseT1, pH 8, 10 °C, mono-exponential fit, independent experiment 1 of 3): 0.1927
- exponential folding rate constant k of RNaseT1 (PPIA [2]; Rnase T1:CypA:PR20=1:0.033:175, same conditions, independent experiment 2 of 3): 0.1913
- exponential folding rate constant k of RNaseT1 (PPIA [2]; Rnase T1:CypA:PR20=1:0.033:175, same conditions, independent experiment 3 of 3): 0.202
- effect on the catalyzing effect of PPIA on RNaseT1 folding (PPIA [2]; increasing PR20: 7, 20, 46, 175 times excess over RNaseT1): inhibited the catalyzing effect of PPIA in a dose-dependent manner

Molecule: cyclosporin A
- Kd (PPIA [3]): 0.013 ± 0.004 µM

Molecule: Ac-APAPAPAPAPAPAPAPAPAPAPAPAPAPAPAPAPAPAPAP-NH2 [AP20]
- Arg55 csp (PPIA [1]; peptide conc. 32 uM): 0.009725
- Arg55 csp (PPIA [1]; peptide conc. 160 uM): 0.03975
- Arg55 csp (PPIA [1]; peptide conc. 320 uM): 0.06372
- Arg55 csp (PPIA [1]; peptide conc. 640 uM): 0.09595
- Arg55 csp (PPIA [1]; peptide conc. 1280 uM): 0.1279
- Arg55 csp (PPIA [1]; peptide conc. 3200 uM): 0.1597

B1: dipeptide repeat polymer GP20 (peptide)
peptide: Ac-GPGPGPGPGPGPGPGPGPGPGPGPGPGPGPGPGPGPGPGP-NH2
notes: also called glycine/proline repeat polymer; source: synthetic peptide (solid-phase peptide synthesis)
- Kd (prolyl isomerase PPIA [4]): 1190 µM

B2: dipeptide repeat polymer AP20 (peptide)
peptide: Ac-APAPAPAPAPAPAPAPAPAPAPAPAPAPAPAPAPAPAPAP-NH2
notes: also called alanine/proline repeat polymer; source: synthetic peptide (solid-phase peptide synthesis)
- Kd (prolyl isomerase PPIA [4]): 597 µM

B3: PR repeat polymer with 20 repeats (PR20) (peptide)
peptide: Ac-PRPRPRPRPRPRPRPRPRPRPRPRPRPRPRPRPRPRPRPR-NH2
notes: dipeptide repeat polymer translated from the C9orf72 hexanucleotide repeat expansion; Only eight residues of the polymer could be built in the asymmetric unit of PDB 7ABT; also called 20-dipeptide polymer PR20; 20-repeat PR polymer; source: synthetic peptide (solid-phase peptide synthesis)
- Kd (prolyl isomerase PPIA [5]): 23 µM
- Kd (prolyl isomerase PPIA [6]): ~50 µM

B4: PR repeat polymer with five PR dipeptides (PR5) (peptide)
peptide: Ac-PRPRPRPRPR-NH2
notes: source: synthetic peptide (solid-phase peptide synthesis)
- Kd (prolyl isomerase PPIA [5]): 49 µM

B5: PR repeat polymer with ten PR dipeptides (PR10) (peptide)
peptide: Ac-PRPRPRPRPRPRPRPRPRPR-NH2
notes: as for B4
- Kd (prolyl isomerase PPIA [5]): 27 µM
